Reference: US6180622A, “Imidazo[5,1-b]thiazol-3-yl carbapenem antimicrobials” (priority 1996, dated 2001)
≈ marks a conversion by molar mass, not a printed value.

What was measured:
M. morganii 1510 = experiment: Antimicrobial activity (minimum inhibitory concentration); assay type: cell-based; settings: Morganella morganii
Experimental: (§1) For representative compounds among the novel carbapenem derivatives of the present invention, the minimum inhibitory concentration (MIC, μg/ml) against various pathogenic bacteria was measured in accordance with a method described in CHEMOTHERAPY, Vol. 16, No. 1, 99 (1968).

S. marcescens No. 1 = experiment: as above; assay type: cell-based; settings: Serratia marcescens
Experimental: as §1

Ps. aeruginosa GN10362 = experiment: as above; assay type: cell-based; settings: Pseudomonas aeruginosa; Ps. aeruginosa GN10362; read-out: MIC
Experimental: as §1

C. freundii GN346 = experiment: as above; assay type: cell-based; settings: Citrobacter freundii
Experimental: as §1

E. coli NIHJ JC-2 = experiment: as above; assay type: cell-based; settings: Escherichia coli, NIHJJC2
Experimental: as §1

K. pneumoniae PCI602 = experiment: as above; assay type: cell-based; settings: Klebsiella pneumoniae
Experimental: as §1

E. cloacae G-0008 = experiment: as above; assay type: cell-based; settings: Enterobacter cloacae, G0008
Experimental: as §1

P. vulgaris GN76 = experiment: as above; assay type: cell-based; settings: Proteus vulgaris; P. vulgaris GN76; read-out: MIC
Experimental: as §1

E. coli GN206 = experiment: as above; assay type: cell-based; settings: Escherichia coli
Experimental: as §1

S. aureus 209P JC-1 = experiment: as above; assay type: cell-based; settings: Staphylococcus aureus
Experimental: as §1

S. aureus M126 = experiment: as above; assay type: cell-based; settings: Staphylococcus aureus; S. aureus M126, highly meticillin-resistant strain
Experimental: as §1

[1] = Stability against DHP-I (mouse); assay type: in vitro ADME; settings: kidney dhp-i, 100 μg (potency)/ml, 37° C., pH 7.0, read-out: residue (%) of the carbapenem derivative
Experimental: (§2) The stability of representative compounds, among the novel carbapenem derivatives of the present invention, against kidney dehydropeptidase-I (DHP-I) of a pig and a mouse was measured, and the residue (%) of the carbapenem derivatives three hr after the initiation of the test is summarized in Table 6.
(§3) 1.5 g of a kidney acetone powder (manufactured by Sigma) Porcine Type II (Lot. 33H7225) was suspended in 100 ml of 50 mM Tris-HCl buffer (pH 7.0) containing 20% butanol, and the suspension was stirred at 5° C. for 48 hr. The suspension was then dialyzed against 50 mM Tris-HCl buffer (pH 7.0) (a cellulose tube 30/32 Viskase Sales Corp.) until the odor of butanol disappeared, thereby removing butanol. The dialyzate is centrifuged at 10000×g (KUBOTA 6800) for 20 min, and the supernatant was obtained as a partially purified DHP-I. This partially purified DHP-I was subdivided and stored at -80° C. The above procedure was repeated, except that 1.5 g of Mouse (Lot. 23F8105) was used. Thus, a partially purified DHP-I was prepared and stored.
(§4) For the carbapenem as the substrate agent, a solution (2000 μg (potency)/ml) was prepared using sterilized, purified water. For the sample solution, the carbapenem (2000 μg (potency)/ml) solution was added to the partially purified DHP-I of each animal to a final concentration of 100 μg (potency)/ml). For the blank, 50 mM Tris-HCl buffer (pH 7.0) was used instead of the partially purified DHP-I of each animal. The reaction was allowed to proceed at 37° C. for 3 hr, and a given amount of the reaction mixture was sampled. Methanol in the same amount as the sampled reaction mixture was added under ice cooling to terminate the reaction. The reaction mixture was filtered through a filter (Sanprep LCR 13-LH manufactured by MILLIPORE) and subjected to HPLC (column: CAPCELL PACK C18SG120, manufactured by Shiseido Co., Ltd.; detection: UV; mobile layer: acetonitrile/10 mM aqueous acetic acid solution) to determined the residue (%).
(§5) Residue (%)=(Sample Peak Area/Blank Peak Area)×100

[2] = Stability against DHP-I (pig); assay type: in vitro ADME; settings: kidney dhp-i, 100 μg (potency)/ml, 37° C., pH 7.0, read-out: residue (%) of the carbapenem derivative
Experimental: as §2, §3, §4, §5

| MIC (M. morganii 1510) | MIC (S. marcescens No. 1) | MIC (Ps. aeruginosa GN10362) | MIC (C. freundii GN346) | MIC (E. coli NIHJ JC-2) | MIC (K. pneumoniae PCI602) | MIC (E. cloacae G-0008) | MIC (P. vulgaris GN76) | MIC (E. coli GN206) | MIC (S. aureus 209P JC-1) | MIC (S. aureus M126) | remaining at 3 h [1] | remaining at 3 h [2] | SMILES |
| --- | --- | --- | --- | --- | --- | --- | --- | --- | --- | --- | --- | --- | --- |
| 0.39 mg/L (≈ 0.839 µM) | 0.2 mg/L (≈ 0.431 µM) | 1.56 mg/L (≈ 3.36 µM) | 0.1 mg/L (≈ 0.215 µM) | 0.05 mg/L (≈ 0.108 µM) | 0.1 mg/L (≈ 0.215 µM) | 0.1 mg/L (≈ 0.215 µM) | 0.78 mg/L (≈ 1.68 µM) | 0.1 mg/L (≈ 0.215 µM) | < 0.025 mg/L | 6.25 mg/L (≈ 13.5 µM) | – | – | C[C@@H](O)[C@H]1C(=O)N2C(C(=O)O)=C(S[C@@H]3CN[C@H](C(O)c4csc5cncn45)C3)[C@H](C)[C@H]12 (single isomer, unassigned) [Ex. 6] |
| 0.2 mg/L | 0.1 mg/L | 3.13 mg/L | 0.2 mg/L | 0.05 mg/L | 0.1 mg/L | 0.05 mg/L | 0.39 mg/L | 0.05 mg/L | < 0.025 mg/L | 12.5 mg/L | – | – | C[C@@H](O)[C@H]1C(=O)N2C(C(=O)O)=C(S[C@@H]3CN[C@H](C(O)c4cn5c[n+](C)cc5s4)C3)[C@H](C)[C@H]12 (single isomer, unassigned) [Ex. 18] |
| – | – | – | – | – | – | – | – | – | – | – | 18% | 71% | C[C@@H](O)[C@H]1C(=O)N2C(C(=O)O)=C(S[C@@H]3CN[C@H](C(=O)N(C)C)C3)[C@H](C)[C@H]12 [Compound C, Meropenem] |
| 0.39 mg/L | 0.2 mg/L | 12.5 mg/L | 0.2 mg/L | 0.1 mg/L | 0.1 mg/L | 0.1 mg/L | 1.56 mg/L | 0.05 mg/L | < 0.025 mg/L | 6.25 mg/L | – | – | C[C@@H](O)[C@H]1C(=O)N2C(C(=O)O)=C(S[C@@H]3CN[C@H](C(=O)NCc4n5ccsc5c[n+]4C)C3)[C@H](C)[C@H]12 [Ex. 2, (1R,5S,6S)-6-((1R)-1-Hydroxyethyl)-1-methyl-2-[(3S,5S)-5-[(6-methylimidazo[5,1-b]thiazolium-5-yl)methylaminocarbonyl]pyrrolidin-3-yl]thiocarbapen-2-em-3-carboxylic acid chloride] |
| 0.78 mg/L (≈ 1.69 µM) | 0.2 mg/L (≈ 0.434 µM) | 6.25 mg/L (≈ 13.6 µM) | 0.2 mg/L (≈ 0.434 µM) | 0.1 mg/L (≈ 0.217 µM) | 0.2 mg/L (≈ 0.434 µM) | 0.1 mg/L (≈ 0.217 µM) | 1.56 mg/L (≈ 3.39 µM) | 0.1 mg/L (≈ 0.217 µM) | 0.1 mg/L (≈ 0.217 µM) | 25 mg/L (≈ 54.3 µM) | – | – | C[C@@H](O)[C@H]1C(=O)N2C(C(=O)O)=C(S[C@@H]3CN[C@H](/C=C\c4csc5cncn45)C3)[C@H](C)[C@H]12 [Ex. 38, (1R,5S,6S)-6-((1R)-1-Hydroxyethyl)-2-[(3S,5S)-5-[2(Z)-(imidazo[5,1-b]thiazol-3-yl)ethenyl]pyrrolidin-3-yl]thio-1-methylcarbapen-2-em-3-carboxylic acid] |
| 0.2 mg/L | 0.05 mg/L | 6.25 mg/L | 0.1 mg/L | < 0.025 mg/L | 0.05 mg/L | 0.05 mg/L | 0.39 mg/L | < 0.025 mg/L | < 0.025 mg/L | 6.25 mg/L | – | – | C[C@@H](O)[C@H]1C(=O)N2C(C(=O)O)=C(S[C@@H]3CN[C@H](/C=C\c4csc5c[n+](C)cn45)C3)[C@H](C)[C@H]12 [Ex. 39, (1R,5S,6S)-6-((1R)-1-Hydroxyethyl)-1-methyl-2-[(3S,5S)-5-[2(Z)-(6-methylimidazo[5,1-b]thiazolium-3-yl)ethenyl]pyrrolidin-3-yl]thiocarbapen-2-em-3-carboxylic acid chloride] |
| 0.39 mg/L | 0.1 mg/L | 0.78 mg/L | 0.1 mg/L | 0.05 mg/L | 0.1 mg/L | 0.05 mg/L | 0.78 mg/L | 0.05 mg/L | 0.05 mg/L | 12.5 mg/L | – | – | C[C@@H](O)[C@H]1C(=O)N2C(C(=O)O)=C(S[C@@H]3CN[C@H](c4csc5c[n+](C)cn45)C3)[C@H](C)[C@H]12 [Ex. 50, (1R,5S,6S)-6-((1R)-1-Hydroxyethyl)-1-methyl-2-[(3S,5S)-5-[(6-methylimidazo[5,1-b]thiazolium)-3-yl]pyrrolidin-3-yl]thiocarbapen-2-em-3-carboxylic acid chloride] |
| 0.39 mg/L | 0.1 mg/L | 0.78 mg/L | 0.1 mg/L | 0.05 mg/L | 0.1 mg/L | 0.1 mg/L | 0.78 mg/L | 0.1 mg/L | 0.05 mg/L | 12.5 mg/L | – | – | C[C@@H](O)[C@H]1C(=O)N2C(C(=O)O)=C(S[C@@H]3CN[C@H](/C=C/c4cn5c[n+](CC(N)=O)cc5s4)C3)[C@H](C)[C@H]12 [Ex. 53A] |
| 0.2 mg/L | 0.1 mg/L | 0.78 mg/L | 0.05 mg/L | 0.05 mg/L | 0.05 mg/L | 0.05 mg/L | 0.39 mg/L | 0.05 mg/L | < 0.025 mg/L | 3.13 mg/L | – | – | C[C@@H](O)[C@H]1C(=O)N2C(C(=O)O)=C(S[C@@H]3CN[C@H](/C=C\c4cn5c[n+](CC(N)=O)cc5s4)C3)[C@H](C)[C@H]12 [Ex. 53B, (1R,5S,6S)-2-[(3S,5S)-5-[2(Z)-(6-(carbamoylmethyl)imidazo[5,1-b]thiazolium-2-yl)ethenyl]pyrrolidin-3-yl]thio-6-((1R)-1-hydroxyethyl)-1-methylcarbapen-2-em-3-carboxylic acid iodide] |
| 0.2 mg/L | 0.1 mg/L | 1.56 mg/L | 0.05 mg/L | < 0.025 mg/L | 0.05 mg/L | < 0.025 mg/L | 0.39 mg/L | 0.05 mg/L | < 0.025 mg/L | 3.13 mg/L | – | – | C[C@@H](O)[C@H]1C(=O)N2C(C(=O)O)=C(S[C@@H]3CN[C@H](/C=C\c4csc5c[n+](CC(N)=O)cn45)C3)[C@H](C)[C@H]12 [Ex. 54] |
| 0.39 mg/L | 0.39 mg/L | 0.78 mg/L | 0.05 mg/L | 0.05 mg/L | 0.1 mg/L | 0.05 mg/L | 0.78 mg/L | 0.1 mg/L | < 0.025 mg/L | 12.5 mg/L | – | – | Cc1n2cc(C[C@@H]3C[C@H](SC4=C(C(=O)O)N5C(=O)[C@H]([C@@H](C)O)[C@H]5[C@H]4C)CN3)sc2c[n+]1CCC(N)=O [Ex. 67, (1R,5S,6S)-2-[(3S,5S)-5-(6-(2-Carbamoylethyl)-5-methylimidazo[5,1-b]thiazolium-2-yl)methylpyrrolidin-3-yl]thio-6-((1R)-1-hydroxyethyl)-1-methylcarbapen-2-em-3-carboxylic acid chloride] |
| 0.39 mg/L (≈ 0.734 µM) | 0.1 mg/L (≈ 0.188 µM) | 1.56 mg/L (≈ 2.93 µM) | 0.1 mg/L (≈ 0.188 µM) | 0.05 mg/L (≈ 0.094 µM) | 0.1 mg/L (≈ 0.188 µM) | 0.05 mg/L (≈ 0.094 µM) | 0.78 mg/L (≈ 1.47 µM) | 0.1 mg/L (≈ 0.188 µM) | < 0.025 mg/L | 6.25 mg/L (≈ 11.8 µM) | – | – | C[C@@H](O)[C@H]1C(=O)N2C(C(=O)[O-])=C(S[C@@H]3CN[C@H](/C=C\c4csc5c[n+](CCC(N)=O)cn45)C3)[C@H](C)[C@H]12 [Ex. 72, (1R,5S,6S)-2-[(3S,5S)-5-[2(Z)-(6-(2-Carbamoylethyl)imidazo[5,1-b]thiazolium-3-yl)ethenyl]pyrrolidin-3-yl]thio-6-((1R)-1-hydroxyethyl)-1-methylcarbapen-2-em-3-carboxylate] |
| 0.2 mg/L | 0.2 mg/L | 0.78 mg/L | 0.1 mg/L | 0.05 mg/L | 0.1 mg/L | 0.05 mg/L | 0.39 mg/L | 0.1 mg/L | < 0.025 mg/L | 6.25 mg/L | – | – | C[C@@H](O)[C@H]1C(=O)N2C(C(=O)O)=C(S[C@@H]3CN[C@H](/C=C\c4cn5c[n+](CCC(N)=O)cc5s4)C3)[C@H](C)[C@H]12 [Ex. 76, (1R,5S,6S)-2-[(3S,5S)-5-[2(Z)-(6-(2-Carbamoylethyl)imidazo[5,1-b]thiazolium-2-yl)ethenyl]pyrrolidin-3-yl]thio-6-((1R)-1-hydroxyethyl)-1-methylcarbapen-2-em-3-carboxylic acid chloride] |
